Source: patent publication US6569456B2, “Osmotic device containing diltiazem and an ACE inhibitor or diuretic” (priority 2000, dated 2003)

Assay: separate study of diltiazem half-life
Settings: in vivo
Source text: The delayed release of the diltiazem causes a delay in the onset of diltiazem build-up in the plasma. Accordingly, onset of the side effects (adverse events) associated with diltiazem therapy have a delayed onset and a patient taking the medication before a rest period should not experience any difficulty in falling asleep.

half-life: ~8.5 h
Structure (SMILES): COc1ccc([C@@H]2Sc3ccccc3N(CCN(C)C)C(=O)[C@@H]2OC(C)=O)cc1 [diltiazem]
